In patent US20030104507A1, “Method for detection of ATP” (priority 2001, published 2003):

Columns and labels:
LucPpy = target: T1, LucPpy (Photinus pyralis, UniProt P08659); assay: Stability of reagent composition with LucPpy and detergent (RT, pH 7.0); assay type: biochemical; conditions: LucPpy
T1 construct: purchased Promega E170A
How it was run: (§1)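 Reagent with 50 μg/ml luciferase, luciferin, MgSO4, buffer and detergent at varying concentrations held at about 23° C; enzyme added just before first read. At timepoints, aliquots mixed 1:1 with media containing ATP and luminescence read immediately (0.5 s/well, triplicate); reaction half-lives and percent of original luminescence derived.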

LucPpe2m146 = assay: Stability of reagent composition with LucPpe2m146 and detergent (RT, pH 7.0); assay type: biochemical, Photuris pennsylvanica
How it was run: as §1

[1] = target: native firefly luciferase (Photinus pyralis, UniProt P08659); conditions: cited from earlier work
Chain of native firefly luciferase (P08659 whole entry): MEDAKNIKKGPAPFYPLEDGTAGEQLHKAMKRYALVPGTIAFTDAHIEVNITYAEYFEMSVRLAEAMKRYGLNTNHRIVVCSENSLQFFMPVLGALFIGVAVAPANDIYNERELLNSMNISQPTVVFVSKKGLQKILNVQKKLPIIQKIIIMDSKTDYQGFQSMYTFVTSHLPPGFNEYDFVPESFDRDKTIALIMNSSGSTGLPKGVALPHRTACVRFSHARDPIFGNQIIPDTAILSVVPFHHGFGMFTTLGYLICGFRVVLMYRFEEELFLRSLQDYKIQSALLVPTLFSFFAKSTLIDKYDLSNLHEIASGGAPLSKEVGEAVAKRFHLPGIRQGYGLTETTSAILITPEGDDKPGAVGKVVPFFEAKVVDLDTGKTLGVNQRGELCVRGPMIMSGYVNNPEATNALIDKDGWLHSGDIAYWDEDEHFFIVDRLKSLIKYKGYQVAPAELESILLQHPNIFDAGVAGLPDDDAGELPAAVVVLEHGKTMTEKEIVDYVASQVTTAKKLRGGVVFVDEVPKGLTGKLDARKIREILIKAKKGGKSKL

CCCCCCCCCCCCCCCC[N+](C)(C)C.[Br-] [CTAB, Cetyltrimethylammonium bromide]
Average Relative Light Units (LucPpy; 0.02%, 0.75 min (head r25)): 1869.80 rlu
Percent of Luminescence Remaining (LucPpy; 0.02%, 0.75 min (times of Table I r25)): 100.00%
Average Relative Light Units (LucPpy; 0.02%, 6 min (head r25)): 79.719 rlu
Percent of Luminescence Remaining (LucPpy; 0.02%, 6 min (times of Table I r25)): 0.09%
Percent of Luminescence Remaining (LucPpy; 0.02%, 16 min (times of Table I r25, r31)): 0.03%
Average Relative Light Units (LucPpy; 0.02%, (16 min) (head r25)): 0.099 rlu
Average Relative Light Units (LucPpy; 0.05%, 0.75 min (head r25)): 1134.53 rlu
Percent of Luminescence Remaining (LucPpy; 0.05%, 0.75 min (times of Table I r25)): 100.00%
Average Relative Light Units (LucPpy; 0.05%, 6 min (head r25)): 0.563 rlu
Percent of Luminescence Remaining (LucPpy; 0.05%, 6 min (times of Table I r25)): 0.05%
Average Relative Light Units (LucPpy; 0.05%, 20 min (head r25)): 0.015 rlu
Percent of Luminescence Remaining (LucPpy; 0.05%, 20 min (times of Table I r25)): 0.00%
Average Relative Light Units (LucPpy; 0.1%, 0.75 min (head r25)): 94.603 rlu
Percent of Luminescence Remaining (LucPpy; 0.1%, 0.75 min (times of Table I r25)): 100.00%
Average Relative Light Units (LucPpy; 0.1%, 6 min (head r25)): 0.020 rlu
Percent of Luminescence Remaining (LucPpy; 0.1%, 6 min (times of Table I r25)): 0.02%
Average Relative Light Units (LucPpe2m146; LucPpe2m146, 0.02%, 1.0 min (head r61)): 11019.8 rlu
Percent of Luminescence Remaining (LucPpe2m146; LucPpe2m146, 0.02%, 1.0 min (times of Table I r61)): 100.00%
Average Relative Light Units (LucPpe2m146; LucPpe2m146, 0.02%, 37 min (head r61)): 2051.7 rlu
Percent of Luminescence Remaining (LucPpe2m146; LucPpe2m146, 0.02%, 37 min (times of Table I r61)): 18.62%
Average Relative Light Units (LucPpe2m146; LucPpe2m146, 0.02%, 67 min (head r61)): 1087.4 rlu
Percent of Luminescence Remaining (LucPpe2m146; LucPpe2m146, 0.02%, 67 min (times of Table I r61)): 9.87%
Average Relative Light Units (LucPpe2m146; LucPpe2m146, 0.02%, 116 min (head r61)): 6117.8 rlu
Percent of Luminescence Remaining (LucPpe2m146; LucPpe2m146, 0.02%, 116 min (times of Table I r61)): 55.52%
Average Relative Light Units (LucPpe2m146; LucPpe2m146, 0.02%, 177 min (head r61)): 16020.8 rlu
Percent of Luminescence Remaining (LucPpe2m146; LucPpe2m146, 0.02%, 177 min (times of Table I r61)): 145.38%
Average Relative Light Units (LucPpe2m146; LucPpe2m146, 0.02%, 243 min (head r61)): 16368.5 rlu
Percent of Luminescence Remaining (LucPpe2m146; LucPpe2m146, 0.02%, 243 min (times of Table I r61)): 148.54%
Average Relative Light Units (LucPpe2m146; LucPpe2m146, 0.05%, 1.0 min (head r61)): 11992.5 rlu
Percent of Luminescence Remaining (LucPpe2m146; LucPpe2m146, 0.05%, 1.0 min (times of Table I r61)): 100.00%
Average Relative Light Units (LucPpe2m146; LucPpe2m146, 0.05%, 37 min (head r61)): 301.5 rlu
Percent of Luminescence Remaining (LucPpe2m146; LucPpe2m146, 0.05%, 37 min (times of Table I r61)): 2.51%
Average Relative Light Units (LucPpe2m146; LucPpe2m146, 0.05%, 67 min (head r61)): 131.7 rlu
Percent of Luminescence Remaining (LucPpe2m146; LucPpe2m146, 0.05%, 67 min (times of Table I r61)): 1.10%
Average Relative Light Units (LucPpe2m146; LucPpe2m146, 0.05%, 116 min (head r61)): 4219.7 rlu
Percent of Luminescence Remaining (LucPpe2m146; LucPpe2m146, 0.05%, 116 min (times of Table I r61)): 35.19%
Average Relative Light Units (LucPpe2m146; LucPpe2m146, 0.05%, 177 min (head r61)): 16910.8 rlu
Percent of Luminescence Remaining (LucPpe2m146; LucPpe2m146, 0.05%, 177 min (times of Table I r61)): 141.01%
Average Relative Light Units (LucPpe2m146; LucPpe2m146, 0.05%, 243 min (head r61)): 17340.0 rlu
Percent of Luminescence Remaining (LucPpe2m146; LucPpe2m146, 0.05%, 243 min (times of Table I r61)): 144.5%
Average Relative Light Units (LucPpe2m146; LucPpe2m146, 0.1%, 1.0 min (head r61)): 1047.8 rlu
Percent of Luminescence Remaining (LucPpe2m146; LucPpe2m146, 0.1%, 1.0 min (times of Table I r61)): 100.00%
Average Relative Light Units (LucPpe2m146; LucPpe2m146, 0.1%, 37 min (head r61)): 5.3 rlu
Percent of Luminescence Remaining (LucPpe2m146; LucPpe2m146, 0.1%, 37 min (times of Table I r61)): 0.51%
Average Relative Light Units (LucPpe2m146; LucPpe2m146, 0.1%, 67 min (head r61)): 5.2 rlu
Percent of Luminescence Remaining (LucPpe2m146; LucPpe2m146, 0.1%, 67 min (times of Table I r61)): 0.50%
Average Relative Light Units (LucPpe2m146; LucPpe2m146, 0.1%, 116 min (head r61)): 6.2 rlu
Percent of Luminescence Remaining (LucPpe2m146; LucPpe2m146, 0.1%, 116 min (times of Table I r61)): 0.59%
Average Relative Light Units (LucPpe2m146; LucPpe2m146, 0.1%, 177 min (head r61)): 6.0 rlu
Percent of Luminescence Remaining (LucPpe2m146; LucPpe2m146, 0.1%, 177 min (times of Table I r61)): 0.58%
Average Relative Light Units (LucPpe2m146; LucPpe2m146, 0.1%, 243 min (head r61)): 5.7 rlu
Percent of Luminescence Remaining (LucPpe2m146; LucPpe2m146, 0.1%, 243 min (times of Table I r61)): 0.55%
effect on native firefly luciferase [1]: inactivated
